# Assay results: patent US20200392158A1, “INHIBITORS OF LEUCINE RICH REPEAT KINASE 2” (GLAXOSMITHKLINE INTELLECTUAL PROPERTY DEVELOPMENT LIMITED, priority 2017, published 2020)
# Biological target: T1, full length G2019 human LRRK2 (Homo sapiens, UniProt Q5S007, R50H)
# T1 construct: made in house; host or cells: HEK293 6E cells transduced with BacMam virus (virus generated in Sf9 cells)
# Assay: Full length G2019 human LRRK2 inhibition mass spectrometry assay
# Assay type: biochemical
# Conditions: LRRKtide to phospho-LRRKtide conversion, RapidFire MS, 2 mM ATP
# Method in brief: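 Purified full-length Flag-tagged G2019 LRRK2, ~25 nM, with 25 μM LRRKtide and 2 mM ATP in 50 mM Hepes pH 7.2, 10 mM MgCl2, 150 mM NaCl, 1 h at room temperature. Quenched with formic acid; phospho- and unphosphorylated LRRKtide measured by RapidFire MS. pIC50 from 4-parameter fit of % conversion, 11 points, top 100 μM.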
# T1 sequence (Q5S007 with tags, fused parts or gaps R50H): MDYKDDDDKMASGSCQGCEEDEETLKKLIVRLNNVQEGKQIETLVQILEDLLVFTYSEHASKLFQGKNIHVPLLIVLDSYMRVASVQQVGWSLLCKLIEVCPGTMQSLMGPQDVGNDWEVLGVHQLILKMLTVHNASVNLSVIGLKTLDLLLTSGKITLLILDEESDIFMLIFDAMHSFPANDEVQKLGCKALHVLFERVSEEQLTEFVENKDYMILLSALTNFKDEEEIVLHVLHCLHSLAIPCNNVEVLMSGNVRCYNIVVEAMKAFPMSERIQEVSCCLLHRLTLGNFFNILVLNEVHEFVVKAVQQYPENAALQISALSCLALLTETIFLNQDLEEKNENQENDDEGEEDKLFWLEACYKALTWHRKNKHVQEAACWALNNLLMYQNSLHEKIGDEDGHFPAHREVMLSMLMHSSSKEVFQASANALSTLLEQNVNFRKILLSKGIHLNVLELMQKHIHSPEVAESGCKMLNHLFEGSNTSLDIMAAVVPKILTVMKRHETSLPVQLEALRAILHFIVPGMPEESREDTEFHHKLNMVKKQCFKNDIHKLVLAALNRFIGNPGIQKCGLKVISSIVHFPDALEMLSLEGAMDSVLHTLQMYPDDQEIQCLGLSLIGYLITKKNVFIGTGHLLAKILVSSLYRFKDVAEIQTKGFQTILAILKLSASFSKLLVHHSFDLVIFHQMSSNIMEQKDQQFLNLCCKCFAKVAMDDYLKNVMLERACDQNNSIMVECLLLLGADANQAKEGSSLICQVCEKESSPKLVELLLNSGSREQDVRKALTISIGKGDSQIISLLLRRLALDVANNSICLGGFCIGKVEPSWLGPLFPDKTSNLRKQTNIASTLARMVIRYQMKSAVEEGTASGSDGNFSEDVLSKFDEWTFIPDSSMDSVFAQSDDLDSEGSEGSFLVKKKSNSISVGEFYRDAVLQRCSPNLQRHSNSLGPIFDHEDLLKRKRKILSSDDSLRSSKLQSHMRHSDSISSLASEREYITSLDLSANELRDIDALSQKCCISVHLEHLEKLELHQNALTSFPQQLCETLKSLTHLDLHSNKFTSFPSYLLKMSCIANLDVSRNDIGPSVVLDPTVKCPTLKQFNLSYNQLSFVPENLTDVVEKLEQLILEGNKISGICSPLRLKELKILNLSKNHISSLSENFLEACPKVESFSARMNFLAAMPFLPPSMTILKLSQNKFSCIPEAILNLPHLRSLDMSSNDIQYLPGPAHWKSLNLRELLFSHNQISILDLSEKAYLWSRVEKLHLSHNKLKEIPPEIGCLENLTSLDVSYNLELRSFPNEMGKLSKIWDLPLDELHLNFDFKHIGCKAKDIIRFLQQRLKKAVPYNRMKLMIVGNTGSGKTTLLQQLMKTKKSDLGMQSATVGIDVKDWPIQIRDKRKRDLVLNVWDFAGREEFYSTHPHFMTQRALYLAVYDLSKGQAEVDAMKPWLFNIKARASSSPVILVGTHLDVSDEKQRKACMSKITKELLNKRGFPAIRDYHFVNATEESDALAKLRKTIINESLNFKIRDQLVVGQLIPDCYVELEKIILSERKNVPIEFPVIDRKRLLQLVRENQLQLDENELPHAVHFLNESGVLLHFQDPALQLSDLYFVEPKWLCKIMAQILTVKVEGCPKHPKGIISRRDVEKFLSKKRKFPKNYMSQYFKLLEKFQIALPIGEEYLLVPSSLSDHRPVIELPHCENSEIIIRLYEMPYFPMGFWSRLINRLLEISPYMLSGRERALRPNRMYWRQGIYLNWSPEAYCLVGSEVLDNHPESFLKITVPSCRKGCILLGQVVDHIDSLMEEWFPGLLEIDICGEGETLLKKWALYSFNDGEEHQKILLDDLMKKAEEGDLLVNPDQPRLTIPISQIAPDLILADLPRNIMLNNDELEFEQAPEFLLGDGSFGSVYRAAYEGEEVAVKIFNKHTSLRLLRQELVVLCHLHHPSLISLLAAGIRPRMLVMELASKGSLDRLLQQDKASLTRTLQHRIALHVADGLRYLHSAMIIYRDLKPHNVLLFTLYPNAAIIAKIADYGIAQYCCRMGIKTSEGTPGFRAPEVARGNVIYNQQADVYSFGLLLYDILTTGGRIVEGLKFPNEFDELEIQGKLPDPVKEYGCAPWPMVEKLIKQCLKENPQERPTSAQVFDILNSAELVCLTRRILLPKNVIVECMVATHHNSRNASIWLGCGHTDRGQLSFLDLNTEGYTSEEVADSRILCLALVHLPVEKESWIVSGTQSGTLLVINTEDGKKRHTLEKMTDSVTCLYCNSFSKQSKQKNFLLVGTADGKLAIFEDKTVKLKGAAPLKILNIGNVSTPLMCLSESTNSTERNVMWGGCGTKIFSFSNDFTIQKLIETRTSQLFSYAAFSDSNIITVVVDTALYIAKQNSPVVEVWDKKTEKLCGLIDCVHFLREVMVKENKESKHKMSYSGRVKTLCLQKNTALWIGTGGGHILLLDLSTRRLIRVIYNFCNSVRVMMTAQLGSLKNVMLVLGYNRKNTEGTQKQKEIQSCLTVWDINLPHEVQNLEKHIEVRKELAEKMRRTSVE
row,Compound,IC50 [µM]
1,"COCC1CCOc2nn(C3CCOCC3)c(C)c2Nc2ncc(Cl)c(n2)N1 (single isomer, unassigned) [E36, 14-chloro-11-(methoxymethyl)-4-methyl-5-(oxan-4-yl)-8-oxa-2,5,6, 12,16,17-hexaazatricyclo-[11.3.1.0^3,7]heptadeca-1(16),3,6,13(17),14-pentaene]",≤ 0.1
2,"Clc1cnc2nc1NCCCOc1nn(C3CCCOC3)cc1N2 (stereo not shown) [E9, 14-Chloro-5-(oxan-3-yl)-8-oxa-2,5,6,12,16,17-hexaazatricyclo[11.3.1.0^3,7]heptadeca-1(16),3,6,13(17),14-pentaene]",≤ 10
3,"Cc1c2c(nn1C1CCOCC1)OCC[C@H](C)Nc1nc(ncc1Cl)N2 [E7, (11S)-14-Chloro-4,11-dimethyl-5-(oxan-4-yl)-8-oxa-2,5,6,12,16,17-hexaazatricyclo [11.3.1.0^3,7]heptadeca-1(16),3,6,13(17),14-pentaene]",≤ 10
4,"Cc1c2c(nn1C1CCOCC1)OCCNc1nc(ncc1Cl)N2 [E138, 13-Chloro-4-methyl-5-(oxan-4-yl)-8-oxa-2,5,6,11,15,16-hexaaza tricyclo[10.3.1.0^3,7]hexadeca-1(15),3,6,12(16),13-pentaene]",≤ 10
5,"Cc1c2c(nn1C1CCOCC1)OC(C)CCNc1nc(ncc1Cl)N2 (single isomer, unassigned) [E114, 14-chloro-4,9-dimethyl-5-(oxan-4-yl)-8-oxa-2,5,6,12,16,17-hexaazatricyclo[11.3.1.0^3,7]heptadeca-1(16),3,6,13(17),14-pentaene]",≤ 0.1
6,"Cc1c2c(nn1CCN1C[C@H]3C[C@@H]1CO3)OCCC(C)Nc1nc(ncc1Cl)N2 (single isomer, unassigned) [E209]",≤ 10

# The remaining lines, values ahead:
row,IC50 [µM],Compound
1,≤ 0.1,"Cc1c2c(nn1C1CCCOC1)OCC(C)CNc1nc(ncc1Cl)N2 (single isomer, unassigned) [E308, 14-Chloro-4,10-dimethyl-5-(oxan-3-yl)-8-oxa-2,5,6,12,16,17-hexaazatricyclo[11.3.1.0^3,7]heptadeca-1(16),3,6, 13(17),14-pentaene]"
2,≤ 0.1,"Cc1c2c(nn1C1CCC(C)CC1)OCCC(C)Nc1nc(ncc1Cl)N2 (single isomer, unassigned) [E260, 14-Chloro-4,11-dimethyl-5-(4-methylcyclohexyl)-8-oxa-2,5,6,12,16,17-hexaazatricyclo[11.3.1.0^3,7] heptadeca-1(16),3,6,13(17),14-pentaene]"
3,≤ 0.1,"Cc1c2c(nn1CCN1C[C@H]3C[C@@H]1CO3)OCCC(C)Nc1nc(ncc1Cl)N2 (single isomer, unassigned) [E210]"
4,≤ 10,"COCC1CCOc2nn(C3CCOCC3F)c(C)c2Nc2ncc(Cl)c(n2)N1 (single isomer, unassigned) [E356, 14-Chloro-5-(3-fluorooxan-4-yl)-11-(methoxymethyl)-4-methyl-8-oxa-2,5,6,12,16,17-hexaazatricyclo [11.3. 1.0^3,7]heptadeca-1(16),3,6,13(17),14-pentaene]"
5,≤ 0.1,"COCC1CCOc2nn(C3CCOCC3F)c(C)c2Nc2ncc(Cl)c(n2)N1 (single isomer, unassigned) [E355, 14-Chloro-5-(3-fluorooxan-4-yl)-11-(methoxymethyl)-4-methyl-8-oxa-2,5,6,12,16,17-hexaazatricyclo [11.3. 1.0^3,7]heptadeca-1(16),3,6,13(17),14-pentaene]"
6,≤ 10,"COC1CNc2nc(ncc2Cl)Nc2c(nn(CC3CCOCC3)c2C)OC1 (single isomer, unassigned) [E275, 14-Chloro-10-methoxy-4-methyl-5-(oxan-4-ylmethyl)-8-oxa-2,5,6,12,16,17-hexaazatricyclo[11.3.1.0^3,7] heptadeca-1(16),3,6,13(17),14-pentaene]"
7,100,"Cc1c2c(nn1CCN1CCC(F)C1)OCCC(C)Nc1nc(ncc1Cl)N2 (single isomer, unassigned) [E216, 14-Chloro-5-[2-(3-fluoropyrrolidin-1-yl)ethyl]-4,11-dimethyl-8-oxa-2,5,6,12,16,17-hexaazatricyclo [11.3.1.0^3,7] heptadeca-1(16),3,6,13(17),14-pentaene]"
